{"source": "BindingDB's records for patent US20230365530", "about": "(The Asean Foundation, 2023)", "molecular_target": "T1, Histone-lysine N-methyltransferase EHMT2 (Homo sapiens, UniProt Q96KQ7)", "T1 sequence (Q96KQ7 whole entry)": "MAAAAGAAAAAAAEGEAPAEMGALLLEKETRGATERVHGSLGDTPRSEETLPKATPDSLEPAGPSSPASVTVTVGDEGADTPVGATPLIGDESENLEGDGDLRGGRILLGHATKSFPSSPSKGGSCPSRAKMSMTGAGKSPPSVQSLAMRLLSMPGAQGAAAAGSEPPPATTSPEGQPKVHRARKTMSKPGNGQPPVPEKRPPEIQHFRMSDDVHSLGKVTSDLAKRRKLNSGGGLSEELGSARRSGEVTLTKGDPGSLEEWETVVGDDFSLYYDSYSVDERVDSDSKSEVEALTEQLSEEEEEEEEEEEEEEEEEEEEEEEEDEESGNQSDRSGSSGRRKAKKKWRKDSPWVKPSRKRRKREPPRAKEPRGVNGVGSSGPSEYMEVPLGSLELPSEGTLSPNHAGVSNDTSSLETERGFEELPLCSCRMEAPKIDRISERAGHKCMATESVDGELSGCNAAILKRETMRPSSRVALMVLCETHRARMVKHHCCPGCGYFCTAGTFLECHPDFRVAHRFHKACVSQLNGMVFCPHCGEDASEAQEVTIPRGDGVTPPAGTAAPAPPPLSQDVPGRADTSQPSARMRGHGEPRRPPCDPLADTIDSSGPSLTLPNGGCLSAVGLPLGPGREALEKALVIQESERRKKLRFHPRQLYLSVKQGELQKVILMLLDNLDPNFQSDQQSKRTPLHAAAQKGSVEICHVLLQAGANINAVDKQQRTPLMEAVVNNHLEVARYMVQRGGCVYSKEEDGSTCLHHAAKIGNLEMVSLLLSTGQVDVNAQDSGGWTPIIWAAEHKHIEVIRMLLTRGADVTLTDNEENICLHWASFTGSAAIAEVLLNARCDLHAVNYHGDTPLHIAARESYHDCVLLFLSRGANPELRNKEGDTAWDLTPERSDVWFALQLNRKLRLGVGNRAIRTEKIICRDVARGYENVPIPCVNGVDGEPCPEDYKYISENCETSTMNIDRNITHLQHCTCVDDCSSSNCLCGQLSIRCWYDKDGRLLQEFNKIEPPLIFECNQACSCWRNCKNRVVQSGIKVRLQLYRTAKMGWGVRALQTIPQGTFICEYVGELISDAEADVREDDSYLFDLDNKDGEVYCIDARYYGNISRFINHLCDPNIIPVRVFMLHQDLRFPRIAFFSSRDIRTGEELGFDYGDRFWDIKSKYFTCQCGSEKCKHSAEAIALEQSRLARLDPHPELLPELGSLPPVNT", "assay": "Enzyme Inhibitory Efficacy Assay", "method": "Specific experimental methods are as follows. First, the compounds of Examples 1 to 89 of 1 nM to 100 μM (4 conc.) were put into a 384 well plate (25 μL/well), and 2 μM […] enzyme (4 conc.) was put into the 384 well plate (25 μL/well). The plate was then centrifuged at 1,500 rpm for 5 seconds after sealing the plate with plate sealing foil. After incubating the EHMT2/G9a enzyme, SAM, and the compounds of Examples above at room temperature for 10 minutes, 2 μM histone H3 peptide (4 conc.) was added to the 384-well plate (25 μL/well). After sealing the plate with plate sealing foil and centrifuging at 1,500 rpm for 5 seconds, an enzymatic reaction was performed at room temperature for 1 hour. Upon completion of the enzyme reaction, 5 μL each of 200 nM Ulight -Streptavidin (4 conc.) and 8 nM Eu-antibody (4 conc.) was added to each well of the plate. The plate was sealed with plate sealing foil, centrifuged at 1,500 rpm for 5 seconds and reacted at room temperature for 1 hour. The signal values were measured with Envision (Ex 320 nm, Em 665 nm), and all background values obtained by reacting without enzyme were deleted from the measured raw data values.", "data": [{"smiles": "COc1cc2c(NC3CCN(C(C)C)CC3)nc(N3CC(F)(F)C3)nc2cc1C#CCCN1CCCC1", "note": "[US20230365530, Example 58]", "values": [{"measurement": "IC50", "result": "< 100", "unit": "nM"}]}, {"smiles": "COc1cc2c(NC3CCN(C(C)C)CC3)nc(N(C)CC(=O)OC(C)(C)C)nc2cc1C#CCCN1CCCC1", "note": "[US20230365530, Example 82]", "values": [{"measurement": "IC50", "result": "< 100", "unit": "nM"}]}]}
